Results taken from US20220194952A1, “TETRAPYRROLIC CONJUGATES AND USES THEREOF FOR IMAGING” (Health Research, Inc., priority 2019, published 2022).

How the values were obtained:
[1] = Singlet oxygen NIR emission in O2-saturated C6D6 versus C60 standard; assay type: physicochemical; conditions: O2-saturated C6D6, excitation 532 nm, emission at 1270 nm compared with C60
From the text: Excitation wavelength: 532 nm.
After monitoring absorption characteristics in several organic and aqueous solvents, it was hypothesized that the aggregation state of 4 could have contributed in decreasing the fluorescence and singlet oxygen quantum yields. The quantum yield of singlet oxygen from 4 was ΦO2=0.31 determined by the comparison of the emission intensity at 1270 nm as compared with C60 used as a standard (ΦO2=0.96) (FIG. 5).

Colon26 cells = assay: In vitro cytotoxicity (PDT) MTT assay; assay type: cell-based; conditions: variable drug concentrations, fixed light dose 1.0 J/cm^2 (FIG. 8A)
Description: Drug concentrations were increased 10× (0.25 to 32.0 μM) and a significant cytotoxicity was observed only at high concentrations at the highest light dose.
Assessment of cell growth following treatment with compound solutions alone and after light exposure was determined by a colorimetric assay that measured the reduction of yellow 3-(4,5-dimethythiazol-2-yl)-2,5-diphenyl tetrazolium bromide (MTT) by mitochondrial succinate dehydrogenase.
Briefly cells were plated into 96 well plates, allowed to adhere to the plate and are treated with a range of compound concentrations for various lengths of time. The light source consisted of dye lasers (375; Spectra-Physics, Mt. View, Calif.) pumped by an argon-ion laser (either 171 or 2080; Spectra-Physics). The dye lasers were tuned to the appropriate wavelength for the compound being tested. Total light doses were ranged from 0.125 to 1.0 J/cm^2 at a fluence rate of 3.2 mW/cm^2. At 48 hours post PDT treatment, MTT was added. The solubilized formazan product was measured spectro-photometrically using a BIOTEK EL-800 plate reader. Data were processed using GEN5 software. A medium blank value was subtracted from all samples and Optical Density (O.D.) values of treated cells were divided by mean O.D. value of untreated cells for each light dose).
Colon26 cells were plated and allowed to adhere for 4 hours, then the photosensitizer was added and incubated at 37° C. for 24 hours. Plates were irradiated with 789 nm light from a dye laser at 3.2 mW/cm^2 for a total dose of 0.25 to 1.0 Joule/cm^2.

[2] = Photobleaching in 17% bovine calf serum; assay type: physicochemical; conditions: 17% BCS, dye laser 75 mW/cm^2, 785 nm for 4
Description: Photobleaching was performed in quartz cuvettes on a 5 μM solution of 2 and a 25 μM solution of 4 in 17% BCS. The higher molarity was chosen to approximate the absorbance of 2 at 5 μM. A dye laser was used at dose rate 75 mW/cm^2, and excitation wavelength for 2 was 660 nm and for 4 was 785 nm.
In photodynamic therapy, photobleaching is the photochemical alteration of a chromophore or a fluorophore molecule such that could either permanently is unable to fluoresce or alter its fluorescence characteristics. This is caused by cleaving of the covalent bonds or non-specific reaction between the reactive oxygen species (e.g., singlet oxygen) and the molecule. These […] species formed by conversion of the molecular oxygen present in tumor to singlet oxygen by exposing the photosensitizer with light at an appropriate wavelength. The rate of photobleaching of the PS should depend (a) availability of oxygen, (b) photostability of PS and finally (c) the singlet oxygen (or other reactive oxygen species) producing ability of the PS.
To investigate the photobleaching characteristics of the photosensitizers, compounds 2 and 4 in equimolar concentrations (5 μM) were taken in quartz cuvettes in 17% bovine calf serum. Dye lasers with appropriate wavelength (2: 660 nm and 4: 785 nm) were used at a dose rate of 75 mW/cm^2. Both the compounds in formulated forms were irradiated with light and the absorption spectra at their long wavelength absorptions were measured with time. The decay in absorbance was plotted against the time of light exposure.

[3] = Singlet oxygen phosphorescence at 1270 nm, methanol, pulsed laser 532 nm; assay type: physicochemical; conditions: near 5 μM, equi-absorbant at 532 nm, excited at 532 nm
Description: The photosensitizers, e. g., HPPH (control), 2 and 4 were individually dissolved in methanol (concentration: 5 μM) in polystyrene cuvettes and excited at 532 nm using a pulsed laser. Phosphorescence of singlet oxygen was detected at 1270 nm.
Before evaluating the imaging and photosensitizing potential of the chlorin 4 with extended ring system, its singlet oxygen producing ability was compared with the related chlorin 2. In brief, both compounds were individually dissolved in methanol in equi-absorbant (at 532 nm) concentrations near 5 μM and excited at 532 nm using a pulsed laser. The phosphorescence of singlet oxygen was detected at 1270 nm. From the results summarized in FIG. 4, it can be seen that compared to chlorin 2 with a five-member isocyclic ring, the related analog 4 with an extended ring system had remarkably lower singlet oxygen producing ability. Singlet oxygen quantum yields were φ=0.29 and φ=0.02 respectively, compared to HPPH φ=0.45.

methyl 3-[1′-(m-iodobenzyloxy)ethyl]-3-devinyl-13^3-keto-13^2-methoxycyclohexene [Compound 4]
quantum yield of singlet oxygen ΦO2 [1]: 0.31 | in vitro cytotoxicity (in words) (Colon26 cells): did not produce any significant cell kill | photobleaching (in words) [2]: negligible photobleaching | Singlet oxygen quantum yield φ [3]: 0.02
